19 compounds from patent US10722515B2, “Dual CLK/CDK1 inhibitors for cancer treatment” (SRI INTERNATIONAL, priority 2016, dated 2020) can be followed below.

In test [1] the test system is SK-MEL-2/Luc-MDM2 cells (MDM2-Luc exon-skipping reporter). The experiment in a line: cell-based MDM2-Luc exon-skipping reporter assay. As to conditions: for MDM2-Luc activity: result in words, no concentration stated; for MDM2/Luc: luciferase activation vs DMSO control, average of three experiments; for activity in the MDM2-Luc assay: at 10 μM.
Test [2] deals with T1, CDK6/cyclinD3(h) (Homo sapiens, UniProt Q00534).
T1 construct: purchased Eurofins, Dundee, Scotland
T1 sequence (Q00534 whole entry): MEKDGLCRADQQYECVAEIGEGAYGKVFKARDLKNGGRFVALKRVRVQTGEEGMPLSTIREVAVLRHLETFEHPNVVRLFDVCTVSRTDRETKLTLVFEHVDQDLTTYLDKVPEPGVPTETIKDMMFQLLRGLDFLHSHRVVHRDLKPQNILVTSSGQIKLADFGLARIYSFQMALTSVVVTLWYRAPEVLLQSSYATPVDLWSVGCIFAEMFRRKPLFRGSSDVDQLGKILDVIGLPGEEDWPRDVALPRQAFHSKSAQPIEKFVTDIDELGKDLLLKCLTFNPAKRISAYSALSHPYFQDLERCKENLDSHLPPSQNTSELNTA
T1 sequence (P30281 whole entry partner): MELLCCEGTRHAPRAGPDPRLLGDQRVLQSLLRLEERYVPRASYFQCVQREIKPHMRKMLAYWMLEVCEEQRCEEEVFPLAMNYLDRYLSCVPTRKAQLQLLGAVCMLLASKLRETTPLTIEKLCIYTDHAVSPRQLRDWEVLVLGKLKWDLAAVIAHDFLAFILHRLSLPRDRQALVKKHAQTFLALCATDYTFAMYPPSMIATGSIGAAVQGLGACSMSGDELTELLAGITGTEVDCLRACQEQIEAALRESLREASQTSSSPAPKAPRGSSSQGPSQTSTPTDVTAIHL
The experiment in a line: radiometric protein kinase assay, CDK6. The format is biochemical. The following applies: enzyme inhibition, ATP 20 μM. How it is done: (§1) Enzymatic biochemical activities were evaluated in radiometric protein kinase assays (Eurofins, Dundee, Scotland). Kinases are incubated with buffer, substrate and [γ-^33P]-ATP (specific activity approx. 500 cpm/pmol, concentration as required). The reaction is initiated by the addition of the MgATP mix. After incubation for 40 minutes at room temperature, the reaction is stopped by the addition of 3% phosphoric acid solution. 10 μL of the reaction is then spotted onto a P30 filtermat and washed three times for 5 minutes in 75 mM phosphoric acid and once in methanol prior to drying and scintillation counting.
(§2) All compounds are prepared to 50× final assay concentration in 100% DMSO. Positive control wells contain all components of the reaction with 2% DMSO. Blank wells contain all components of the reaction, with a reference inhibitor replacing the compound of interest. Each kinase is assigned a standard assay concentration of ATP within 20 μM of its apparent KM. Compounds were screened at 1 μM in duplicate or tested at 10 concentrations at half log dilution starting from 10 μM in singlicate. Dose response curves were fitted with four parameter logistic curve to obtain IC50 values. The average coefficient of variation (CV) of the conducted assay is 4.4%.

In test [3] the target is T2, CLK3(h) (Homo sapiens, UniProt P49761).
T2 construct: purchased Eurofins, Dundee, Scotland
T2 sequence (P49761 whole entry): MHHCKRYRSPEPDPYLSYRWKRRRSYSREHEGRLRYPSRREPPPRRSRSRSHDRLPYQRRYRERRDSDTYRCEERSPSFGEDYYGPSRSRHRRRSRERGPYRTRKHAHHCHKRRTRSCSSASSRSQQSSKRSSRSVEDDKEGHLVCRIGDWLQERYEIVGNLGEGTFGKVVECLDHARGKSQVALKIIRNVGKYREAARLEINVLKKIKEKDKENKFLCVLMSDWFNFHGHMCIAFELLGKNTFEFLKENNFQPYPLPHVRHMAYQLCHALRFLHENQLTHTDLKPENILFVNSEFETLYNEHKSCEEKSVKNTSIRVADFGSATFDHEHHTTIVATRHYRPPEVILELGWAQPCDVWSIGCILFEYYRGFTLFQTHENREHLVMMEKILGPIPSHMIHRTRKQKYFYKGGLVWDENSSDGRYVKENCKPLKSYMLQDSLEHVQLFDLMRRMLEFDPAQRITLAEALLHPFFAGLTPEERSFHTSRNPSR
The experiment in a line: radiometric protein kinase assay, CLK3. The format is biochemical. How it is done: as §1, §2

Test [4] addresses T3, CLK4(h) (Homo sapiens, UniProt Q9HAZ1).
T3 construct: purchased Eurofins, Dundee, Scotland
The experiment in a line: radiometric protein kinase assay, CLK4. The format is biochemical. The following applies: enzyme inhibition, ATP 10 μM. The procedure: as §1, §2

For test [5], the target named is T4, CLK2(h) (Homo sapiens, UniProt P49760).
T4 construct: purchased Eurofins, Dundee, Scotland
T4 sequence (P49760 whole entry): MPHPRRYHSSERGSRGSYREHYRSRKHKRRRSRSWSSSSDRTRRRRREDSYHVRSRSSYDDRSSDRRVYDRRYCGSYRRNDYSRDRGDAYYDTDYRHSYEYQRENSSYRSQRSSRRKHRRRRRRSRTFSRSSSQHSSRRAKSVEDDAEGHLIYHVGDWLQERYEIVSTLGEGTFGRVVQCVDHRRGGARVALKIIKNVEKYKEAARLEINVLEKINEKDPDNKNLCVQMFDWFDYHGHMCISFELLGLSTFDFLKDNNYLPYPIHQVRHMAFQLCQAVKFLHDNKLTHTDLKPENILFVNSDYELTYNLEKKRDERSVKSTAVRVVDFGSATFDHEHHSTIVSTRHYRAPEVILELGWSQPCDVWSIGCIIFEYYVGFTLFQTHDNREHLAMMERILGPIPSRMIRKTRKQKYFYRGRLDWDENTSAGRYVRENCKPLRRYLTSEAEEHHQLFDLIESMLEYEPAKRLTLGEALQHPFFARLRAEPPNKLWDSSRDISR
The experiment in a line: radiometric protein kinase assay, CLK2. The following applies: enzyme inhibition, ATP 10 μM. Type of test: biochemical. How it is done:
as §1, §2

Test [6] deals with T5, CDK1/cyclinB(h) (Homo sapiens, UniProt P06493).
T5 construct: purchased Eurofins, Dundee, Scotland
T5 sequence (P06493 whole entry): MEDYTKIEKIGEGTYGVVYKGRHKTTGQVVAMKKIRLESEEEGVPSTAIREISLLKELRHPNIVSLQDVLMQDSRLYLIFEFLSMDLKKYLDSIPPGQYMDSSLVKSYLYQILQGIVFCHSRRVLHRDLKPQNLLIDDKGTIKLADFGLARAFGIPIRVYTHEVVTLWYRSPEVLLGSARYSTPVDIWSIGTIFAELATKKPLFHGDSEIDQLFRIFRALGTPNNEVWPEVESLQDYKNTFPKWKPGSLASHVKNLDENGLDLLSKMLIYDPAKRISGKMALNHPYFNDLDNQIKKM
T5 sequence (P14635 whole entry partner): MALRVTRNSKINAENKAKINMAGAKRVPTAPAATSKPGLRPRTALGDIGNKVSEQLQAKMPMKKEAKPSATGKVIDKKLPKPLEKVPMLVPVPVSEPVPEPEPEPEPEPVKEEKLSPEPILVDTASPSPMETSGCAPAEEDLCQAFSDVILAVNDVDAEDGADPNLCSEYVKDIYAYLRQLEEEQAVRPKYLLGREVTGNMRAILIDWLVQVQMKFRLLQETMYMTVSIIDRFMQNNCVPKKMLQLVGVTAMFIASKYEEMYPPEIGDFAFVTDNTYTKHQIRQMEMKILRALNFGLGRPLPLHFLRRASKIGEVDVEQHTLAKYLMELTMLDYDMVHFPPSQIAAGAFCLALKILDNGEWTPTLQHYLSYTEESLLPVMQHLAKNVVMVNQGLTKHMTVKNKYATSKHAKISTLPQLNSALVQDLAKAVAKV
The experiment in a line: radiometric protein kinase assay, CDK1. Type of test: biochemical. The following applies: enzyme inhibition, ATP 45 μM. How it is done: as §1, §2

The target of test [7] is T6, CDK4/cyclinD3(h) (Homo sapiens, UniProt P11802).
T6 construct: purchased Eurofins, Dundee, Scotland
T6 sequence (P11802 whole entry): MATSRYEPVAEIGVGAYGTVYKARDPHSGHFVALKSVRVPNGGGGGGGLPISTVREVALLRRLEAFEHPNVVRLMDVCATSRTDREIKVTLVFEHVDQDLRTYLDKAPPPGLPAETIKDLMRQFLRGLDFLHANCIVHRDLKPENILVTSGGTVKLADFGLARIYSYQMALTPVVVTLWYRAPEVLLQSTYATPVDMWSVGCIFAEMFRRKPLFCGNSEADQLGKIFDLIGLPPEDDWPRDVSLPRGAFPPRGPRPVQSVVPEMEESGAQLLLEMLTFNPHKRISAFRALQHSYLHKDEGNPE
T6 sequence (P30281 whole entry partner): as the sequence (P30281 whole entry partner) above
The experiment in a line: radiometric protein kinase assay, CDK4. The format is biochemical. The following applies: enzyme inhibition, ATP 20 μM. The procedure: as §1, §2

Test [8] addresses T7, CLK1(h) (Homo sapiens, UniProt P49759).
T7 construct: purchased Eurofins, Dundee, Scotland
The experiment in a line: radiometric protein kinase assay, CLK1. Type of test: biochemical. The following applies: enzyme inhibition, radiometric, ATP 10 μM; read-out: IC50 (nM) CLK1. How it is done: as §1, §2

[9] abbreviates: enzyme inhibition, radiometric, ATP 90 μM, read-out: IC50 (nM) CLK3.

Where two headings read alike, the source gives them in different places. Where only a bound is given, the exact number is not on record here.

Usually IC50 stands for the concentration that inhibits the measured activity by half.

T3 sequence (Q9HAZ1 whole entry): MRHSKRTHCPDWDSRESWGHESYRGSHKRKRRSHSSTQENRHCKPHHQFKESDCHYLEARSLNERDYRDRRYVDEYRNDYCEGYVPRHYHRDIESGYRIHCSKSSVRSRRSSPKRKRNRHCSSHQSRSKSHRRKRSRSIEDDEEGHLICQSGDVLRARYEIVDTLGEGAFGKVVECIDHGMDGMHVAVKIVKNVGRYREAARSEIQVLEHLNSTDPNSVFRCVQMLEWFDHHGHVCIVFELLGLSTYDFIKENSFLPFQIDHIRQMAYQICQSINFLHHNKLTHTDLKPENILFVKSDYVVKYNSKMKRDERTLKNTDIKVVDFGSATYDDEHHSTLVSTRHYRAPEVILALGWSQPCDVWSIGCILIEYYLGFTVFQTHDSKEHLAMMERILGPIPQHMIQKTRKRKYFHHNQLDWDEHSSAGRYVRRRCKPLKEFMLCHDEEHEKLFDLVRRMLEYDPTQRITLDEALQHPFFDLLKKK
T7 sequence (P49759 whole entry): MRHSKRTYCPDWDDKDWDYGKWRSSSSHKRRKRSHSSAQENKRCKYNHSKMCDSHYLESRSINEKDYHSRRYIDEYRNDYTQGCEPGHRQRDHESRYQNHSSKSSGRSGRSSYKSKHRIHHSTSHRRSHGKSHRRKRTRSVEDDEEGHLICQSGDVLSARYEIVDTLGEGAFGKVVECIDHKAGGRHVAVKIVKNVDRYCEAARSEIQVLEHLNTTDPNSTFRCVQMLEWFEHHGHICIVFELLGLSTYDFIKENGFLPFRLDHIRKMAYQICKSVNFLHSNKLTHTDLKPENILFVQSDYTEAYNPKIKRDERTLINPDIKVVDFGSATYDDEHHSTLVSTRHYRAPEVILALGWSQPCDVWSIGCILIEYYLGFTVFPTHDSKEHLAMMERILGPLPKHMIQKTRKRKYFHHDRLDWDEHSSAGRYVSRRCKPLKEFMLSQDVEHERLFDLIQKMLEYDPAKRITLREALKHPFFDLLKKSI

For `COCCNc1nc(Nc2cccc(Cl)c2)c2ncn(C(C)C)c2n1` [Compound 13, N^6-(3-Chlorophenyl)-9-Isopropyl-N^2-(2-Methoxyethyl)-9H-Purine-2,6-Diamine], the MDM2-Luc activity entry in test [1] is reported as “dramatically reduced activity”.

Consider `CC(C)n1cnc2c(Nc3cccc(Cl)c3)nc(N[C@H]3CCCC[C@H]3N)nc21` [Compound 10, N^2-((1S,2R)-2-Aminocyclohexyl)-N^6-(3-Chlorophenyl)-9-Isopropyl-9H-Purine-2,6-Diamine], for which the “luciferase response (Luc fold) in the MDM2-Luc reporter assay” value in test [1] (compared with less potent CLK inhibitors of the series) is “stronger luciferase response”. The MDM2/Luc entry in test [1] is listed as “Active”. Further, the IC50 in test [2] was > 1000 nM; in test [3] (setting [9]), > 1000 nM; in test [4], 70 nM; in test [5] it was 26 nM; in test [6], > 1000 nM; in test [7], > 1000 nM. In addition, the IC50 in test [8] stood at 74 nM.

Take `CCc1cnn2c(NCc3ccc[n+]([O-])c3)cc(N3CCCC[C@H]3CCO)nc12` [dinaciclib, reference compound]: the “activity in the MDM2-Luc assay” value in test [1] is “inactive”.

For `CC(C)n1cnc2c(Nc3cc(N)cc(Cl)c3)nc(N[C@H]3CCCC[C@@H]3N)nc21` [Compound 20, 1V-(3-Amino-5-Chlorophenyl)-M-((1 S,2S)-2-Aminocyclohexyl)-9-Isopropyl-9H-Purine-2,6-Diamine], the IC50 is > 1000 nM in test [2]; > 1000 nM in test [3] (setting [9]); 124 nM in test [4]; 14 nM in test [5]; > 1000 nM in test [6]; > 1000 nM in test [7]. In test [8], the 50% inhibitory concentration (IC50) is 56 nM.

Consider `CC(C)n1cnc2c(Nc3cc(N)cc(Cl)c3)nc(N[C@@H]3CCNC3)nc21` [Compound 25, (R)—N^6-(3-Amino-5-Chlorophenyl)-9-Isopropyl-N^2-(Pyrrolidin-3-Yl)-9H-Purine-2,6-Diamine], for which the IC50 in test [2] is > 1000 nM; in test [3] (setting [9]), > 1000 nM; in test [4], 299 nM; in test [5], 92 nM; in test [6], > 1000 nM; in test [7], > 1000 nM. In test [8], the IC50 worked out at 118 nM.

As to `CCn1cnc2c(Nc3cccc(Cl)c3)nc(N[C@@H]3CCCC[C@H]3N)nc21` [Compound 5, N-((1R,2R)-2-Aminocyclohexyl)-V-(3-Chlorophenyl)-9-Ethyl-9H-Purine-2,6-Diamine], in test [1], the MDM2/Luc result was “Active”. Besides, the IC50 in test [2] is > 1000 nM; in test [3], > 1000 nM; in test [4], > 1000 nM; in test [5] it was 498 nM; in test [6], 546 nM; in test [7] it was > 1000 nM. Besides, in test [8], the IC50 was found to be 868 nM.

For the compound `CC(C)n1cnc2c(Nc3cccc(Cl)c3)nc(N[C@@H]3CCCC[C@H]3N)nc21` [Compound 7, N-((1R,2R)-2-Aminocyclohexyl)-N^6-(3-Chlorophenyl)-9-Isopropyl-9H-Purine-2,6-Diamine], the MDM2/Luc entry in test [1] is recorded as “Active”. Also, the IC50 in test [2] was > 1000 nM; in test [3] (setting [9]), > 1000 nM; in test [4], 634 nM; in test [5], 120 nM; in test [6] it was > 1000 nM; in test [7] it was > 1000 nM. For the same compound, the IC50 in test [8] worked out at 400 nM.

As for `CCOC(=O)c1c(/C(C#N)=C\N)c2ccc(Cl)c(Cl)c2n1C` [KH-CB19, reference compound], in test [1], the MDM2-Luc activity entry is reported as “modest activity”.

As to `CC(C)n1cnc2c(Nc3cc(N)cc(Cl)c3)nc(N[C@@H]3CCCC[C@@H]3N)nc21` [Compound 16, 1V-(3-Amino-5-Chlorophenyl)-N-((1R,2S)-2-Aminocyclohexyl)-9-Isopropyl-9H-Purine-2,6-Diamine], the values for the half-inhibitory concentration (IC50) in test [4], in test [5] and in test [8] were 25 nM, 6 nM and 17 nM, respectively.

For `CCn1cnc2c(Nc3cccc(Cl)c3)nc(NC3CCCCC3NC(C)=O)nc21` (racemic) [Compound 12, Racemic N-Cis(2-((6-((3-Chlorophenyl)Amino)-9-Ethyl-9H-Purin-2-Yl)Amino)Cyclohexyl) Acetamide], the “activity in the MDM2-Luc assay” value in test [1] was “completely abrogated all activity”.

In the case of `CC(=O)Nc1cc(Cl)cc(Nc2nc(N[C@H]3CCCC[C@H]3N)nc3c2ncn3C(C)C)c1` [Compound 19, N-(3-((2-(((1S,2R)-2-Aminocyclohexyl)Amino)-9-Isopropyl-9H-Purin-6-Yl)Amino)-5-Chlorophenyl)Acetamide], the IC50 was > 1000 nM in test [2]; > 1000 nM in test [3] (setting [9]); 31 nM in test [4]; 17 nM in test [5]; > 1000 nM in test [6]; > 1000 nM in test [7]. Also, the IC50 in test [8] amounted to 26 nM.

For `CC(C)n1cnc2c(Nc3cc(N)cc(Cl)c3)nc(N[C@@H]3CCCNC3)nc21` [Compound 23, (R)—N^6-(3-Amino-5-Chlorophenyl)-9-Isopropyl-N^2-(Piperidin-3-Yl)-9H-Purine-2,6-Diamine], the IC50 in test [2] is > 1000 nM; in test [3] (setting [9]), > 1000 nM; in test [4], 102 nM; in test [5] it was 34 nM; in test [6] it was > 1000 nM; in test [7], > 1000 nM. The IC50 in test [8] was found to be 66 nM.

For the compound `CC(C)n1cnc2c(Nc3cc(N)cc(Cl)c3)nc(N[C@H]3CCCC[C@H]3N)nc21` [Compound 17, N^6-(3-Amino-5-Chlorophenyl)-N^2-((1 S,2R)-2-Aminocyclohexyl)-9-Isopropyl-9H-Purine-2,6-Diamine], the half-maximal inhibitory concentration (IC50) in test [2] was > 1000 nM; in test [3] (setting [9]), > 1000 nM; in test [4] it was 28 nM; in test [5], 26 nM; in test [6], > 1000 nM; in test [7], > 1000 nM. The IC50 in test [8] came out at 21 nM.

Regarding `O=C(Nc1cc(C(F)(F)F)ccc1N1CCCCC1)c1ccncc1` [SRPIN340, reference compound], the “activity in the MDM2-Luc assay” value in test [1] was “inactive”.

For `CC(C)n1cnc2c(Nc3cc(N)cc(Cl)c3)nc(N[C@@H]3CCCC[C@H]3N)nc21` [Compound 21, N^6-(3-Amino-5-Chlorophenyl)-N-((1R,2R)-2-Aminocyclohexyl)-9-Isopropyl-9H-Purine-2,6-Diamine], the IC50 in test [2] is > 1000 nM; in test [3] (setting [9]), > 1000 nM; in test [4] it was 648 nM; in test [5], 163 nM; in test [6], > 1000 nM; in test [7], > 1000 nM. Also, in test [8], the half-inhibitory concentration (IC50) worked out at 274 nM.

Turning to `CC(C)n1cnc2c(Nc3cc(N)cc(Cl)c3)nc(N[C@H]3CCCNC3)nc21` [Compound 22, (S)—N^6-(3-Amino-5-Chlorophenyl)-9-Isopropyl-N^2-(Piperidin-3-Yl)-9H-Purine-2,6-Diamine], the IC50 was > 1000 nM in test [2]; > 1000 nM in test [3] (setting [9]); 61 nM in test [4]; 26 nM in test [5]; > 1000 nM in test [6]; > 1000 nM in test [7]. Also, the IC50 in test [8] is 31 nM.

For `CC(C)n1cnc2c(Nc3cc(N)cc(Cl)c3)nc(N[C@H]3CCNC3)nc21` [Compound 24, (S)—N^6-(3-Amino-5-Chlorophenyl)-9-Isopropyl-N^2-(Pyrrolidin-3-Yl)-9-Purine-2,6-Diamine], the IC50 was > 1000 nM in test [2]; > 1000 nM in test [3] (setting [9]); 77 nM in test [4]; 28 nM in test [5]; > 1000 nM in test [6]; > 1000 nM in test [7]. Moreover, the IC50 in test [8] turned out to be 71 nM.

As for `CC(=O)Nc1cc(Cl)cc(Nc2nc(N[C@@H]3CCCC[C@@H]3N)nc3c2ncn3C(C)C)c1` [Compound 18, N-(3-((2-(((1R,2S)-2-Aminocyclohexyl)Amino)-9-Isopropyl-9H-Purin-6-Yl)Amino)-5-Chlorophenyl)Acetamide], the IC50 in test [2] was > 1000 nM; in test [3] (setting [9]), > 1000 nM; in test [4], 30 nM; in test [5], 7 nM; in test [6], > 1000 nM; in test [7], 611 nM. Also, the IC50 in test [8] worked out at 19 nM.

On to `CC(C)n1ccc2c(Nc3cccc(Cl)c3)nc(NC3CCCCC3N)nc21` (racemic) [Compound 11, Racemic-N^2-Cis((2-Aminocyclohexyl)-N^4-(3-Chlorophenyl)-7-Isopropyl-7H-Pyrrolo[2,3-D]Pyrimidine-2,4-Diamine], for which, in test [1], the “activity in the MDM2-Luc assay” value is “completely abrogated all activity”.
